Experimental data as given in PMC9841524, “Structure-Based Rational Design of Small α-Helical Peptides with Broad-Spectrum Activity against Multidrug-Resistant Pathogens” (Journal of Medicinal Chemistry, 2022).
Where no end group is shown, it is not given here.

Assays:
[1] = Relative hydrophobicity as RP-HPLC retention time; assay type: physicochemical; details: chromatographic, Phenomenex Luna C18 4 μm 150 × 4.6 mm, linear AB gradient 1% acetonitrile/min, 0.3 mL/min, A water 0.1% TFA, B acetonitrile 0.1% TFA, 25 °C
Experimental: The purity analysis of the peptides was conducted on a RP-HPLC system (Shimadzu; LC-20ADXR) by using a Phenomenex (Luna) analytical C18 column (4 μm, 150 × 4.6 mm). The mass of the purified peptides was determined in the positive-ion mode using Q-TOF LC/MS (Compass Hystar 4.1, Bruker, USA). The purity (>95%) and mass data of all the synthesized peptides are provided in the Supporting Information.
8. Comparative Hydrophobicity analysis
The purity of all synthesized peptides was determined using reverse phase analytical HPLC
(Shimadzu; LC-20ADXR). Below mentioned are the conditions used to conduct the purity
Column: Phenomenex (Luna), 4 um, C18, 150 × 4.6 mm
Mobile Phase: Buffer A-Water containing 0.1% TFA,
Buffer B-Acetonitrile containing 0.1% TFA
Figure S52. HPLC chromatogram of 6a.
(1 picture or pasted object on this page, not shown here)

[2] = tested on: A. baumannii (ATCC BAA1605); details: Gram-negative, footnote e ciprofloxacin (MDR in Table S3); CLSI microdilution, CAMHB, 37 °C, 24 h; highest MIC of three independent experiments in triplicate
Summary of the method: (§1)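 Broth microdilution per CLSI: overnight cultures diluted in cation-adjusted Mueller Hinton Broth to 10^6 CFU/mL, mixed with 2-fold serial peptide dilutions, incubated 37 °C for 24 h. MIC = lowest peptide concentration inhibiting growth. Three independent assays in triplicate.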

[3] = tested on: P. aeruginosa (ATCC 27883); experiment: MIC, standard microtiter dilution (CLSI); assay type: cell-based, Pseudomonas aeruginosa; details: broth microdilution (CLSI), CAMHB, 37 °C, 24 h
Summary of the method: as §1

[4] = tested on: K. pneumoniae (ATCCBAA-1705); experiment: MIC, standard microtiter dilution (CLSI); assay type: cell-based, Klebsiella pneumoniae; details: broth microdilution (CLSI), CAMHB, 37 °C, 24 h
Summary of the method: as §1

[5] = tested on: S. aureus (ATCC 29213); experiment: MIC, standard microtiter dilution (CLSI); assay type: cell-based; details: broth microdilution (CLSI), CAMHB, 37 °C, 24 h
Summary of the method: as §1

[6] = tested on: human red blood cells (hRBCs); experiment: Hemolytic assay; assay type: cell-based; details: for decrease in the hemolytic activity on replacing Arg with Lys: 7b vs 7a, 8b vs 8a, HC50, hRBC; for HC50 (concentration at which 50% hemolysis was observed): 2 h, 37 °C
Summary of the method: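 Peptides in 2-fold serial dilutions mixed 1:1 with 4% hRBC suspension in PBS and held 2 h at 37 °C unshaken. Hemoglobin release in supernatant read at 567 nm; % hemolysis scaled between PBS (0%) and 1% Triton X-100 (100%).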

[7] = tested on: human lung fibroblast cells (MRC-5), human embryonic kidney cells (HEK-293), human hepatic cells (HepaRG), HeKa cells; experiment: 24 h cell viability assay (MTS); assay type: cell-based; details: triplicate
Experimental: The in vitro cytotoxicity of 8a and 8b was evaluated using human lung fibroblast cells (MRC-5), human embryonic kidney cells (HEK-293), human hepatic cells (HepaRG), and human epidermal keratinocytes (HEKa). Cells were seeded at 10,000 per well in 0.1 mL of media in 96-well plates 24 h prior to the experiment. Lung and kidney cells were seeded in DMEM medium containing FBS (10%). Liver cells were seeded in William’s E medium with the GlutaMAX supplement. Epidermal keratinocytes were seeded in a Dermal Cell Basal medium supplemented with a keratinocyte growth kit. The peptides were added to each well in triplicates at a variable concentration of 10–250 μg/mL and incubated for 24h at 37 °C in a humidified atmosphere of 5% CO2. After the incubation period, the MTS solution (20 μL) was added to each well. Then, the cells were incubated for 2 h at 37 °C, and the cell viability was determined by measuring the absorbance at 490 nm using a SpectraMaxM2 microplate spectrophotometer. The percentage of cell survival was calculated as [(OD value of cells treated with the test mixture of compounds) – (OD value of culture medium)]/[(OD value of control cells) – (OD value of culture medium)] × 100%.

[8] = 10^6 CFU/mL, highest MIC of three independent experiments in triplicate
[9] = hRBC suspension 4% in PBS, hemoglobin release at 567 nm, 1% Triton X-100 = 100%
[10] = value in parentheses (μM), hRBC 4% in PBS, 567 nm
[11] = all tested cells (MRC-5, HEK-293, HepaRG, HeKa), MTS

Compound | tR, RP-HPLC retention time (measure of overall hydrophobicity) [1] [min] | MIC, A. baumannii (ATCC BAA1605) [2] [µg/mL] | MIC, P. aeruginosa (ATCC 27883) [3, 8] [µg/mL] | MIC, P. aeruginosa (ATCC 27883) ([3]; value in parentheses (μM)) [µM] | MIC, K. pneumoniae (ATCCBAA-1705) [4, 8] [µg/mL] | MIC, K. pneumoniae (ATCCBAA-1705) ([4]; value in parentheses (μM)) [µM] | MIC, S. aureus (ATCC 29213) [5, 8] [µg/mL] | MIC, S. aureus (ATCC 29213) ([5]; value in parentheses (μM)) [µM] | decrease in the hemolytic activity on replacing Arg with Lys [6] | HC50 (concentration at which 50% hemolysis was observed) [6, 9] [µg/mL] | HC50 (concentration at which 50% hemolysis was observed) [6, 10] [µM] | cell viability at 50 μg/mL [7, 11] | cell viability at 250 μg/mL [7, 11] | cytotoxicity against kidney and liver cells ([7]; HEK293 and HPRGC10 (HepaRG), up to 250 μg/mL) | cell viability at 250 μg/mL, except for skin cells ([7]; MRC-5, HEK-293, HepaRG, MTS) | HC50 ([6]; abstract, hRBC) [µg/mL]
KWIKKWIKWWKK-NH2 [7b] | 32.23 | 12.5 | 6.2 | 3.53 | 25 | 14.23 | 6.2 | 3.53 | approximately 5 fold | 460 | 261.77 |  |  |  |  | 
RWLRRWLRWWRR-NH2 [8a] | 34.99 | 6.2 | 12.5 | 6.49 | 12.5 | 6.49 | 6.2 | 3.22 |  | 45 | 23.37 | below 60% | below 30% |  |  | 
CCCCCCCCCC(=O)N[C@@H](Cc1c[nH]c2ccccc12)C(=O)N[C@H](CC(N)=O)C(=O)N[C@@H](CC(=O)O)C(=O)N[C@@H]1C(=O)NCC(=O)N[C@@H](CCCN)C(=O)N[C@@H](CC(=O)O)C(=O)N[C@H](C)C(=O)N[C@@H](CC(=O)O)C(=O)NCC(=O)N[C@H](CO)C(=O)N[C@@H]([C@H](C)CC(=O)O)C(=O)N[C@@H](CC(=O)c2ccccc2N)C(=O)O[C@@H]1C [daptomycin, reference compound] |  |  |  |  |  |  | 0.7 | 0.43 |  |  |  |  |  | negligible cytotoxicity |  | 
KWLKKWLKWWKK-NH2 [8b] | 33.41 | 3.1 | 6.2 | 3.53 | 6.2 | 3.53 | 3.1 | 1.76 | approximately 5 fold |  | 159.34 | above 75% |  |  | above 60% | 280
RWIRRWIRWWRR-NH2 [7a] | 33.93 | 12.5 | 6.2 | 3.22 | 12.5 | 6.49 | 6.2 | 3.22 |  | 90 | 46.74 |  |  |  |  | 
